We go through three compounds from ChEMBL document CHEMBL5131473, “One-pot synthesis of oxoaporphines as potent antitumor agents and investigation of their mechanisms of actions” (Eur J Med Chem, 2022).

For experiment [1], the system named is T-24. Kind of experiment: Induction of Ca2+ production in human T24 cells assessed as increase in intracellular Ca2+ concentration at 10 uM by Fluo3-AM staining based fluorescence microscopic method. In kind it is functional, cell-based.
The subject of experiment [2] is T-24. Kind of experiment: Inhibition of cell migration in human T24 cells assessed as recovery of wound area at 5 uM measured after 24 hrs by wound healing assay based fluorescence microscopy. The class given is functional. On the set-up: scale not given: the % may be the effect or the level left.
Experiment [3] has as its system T-24. Briefly: Induction of DNA damage in human T24 cells assessed as increase in gamma H2AX expression at 10 to 15 uM incubated for 24 hrs by Western blot analysis. The class given is functional, cell-based. Particulars: dose 10-15 µM.
Experiment [4] deals with T-24. Kind of experiment: Induction of apoptosis in human T24 cells assessed as condensation of nuclei at 10 uM by Hoechst33258 staining based fluorescence microscopy. In kind it is functional, cell-based.
In experiment [5] the test system is T-24. Kind of experiment: Induction of mitochondrial mediated apoptosis in human T24 cells assessed as upregulation of apaf-1 expression at 10 to 15 uM incubated for 24 hrs by Western blotting analysis. In kind it is functional, cell-based. To be noted: dose 10-15 µM.
The subject of experiment [6] is T-24. Kind of experiment: Induction of apoptosis in human T24 cells assessed as increase in caspase 3 activity at 15 uM (Rvb= 3.1%). In kind it is functional.
For experiment [7], the system named is T-24. Briefly: Induction of apoptosis in human T24 cells assessed as increase in caspase 9 activity at 10 uM (Rvb= 7.2%). The class given is functional.
Experiment [8] relates to T-24. Briefly: Induction of cell cycle arrest in human T24 cells assessed as accumulation of cells at G1 phase at 10 uM incubated for 24 hrs by propidium iodide/RNase A staining based flow cytometry analysis (reference value: 51.71 %). In kind it is functional.
Experiment [9] has as its system T-24. Briefly: Induction of cell cycle arrest in human T24 cells assessed as accumulation of cells at S phase at 15 uM incubated for 24 hrs by propidium iodide/RNase A staining based flow cytometry analysis (reference value: 42.47 %). The class given is functional.
Experiment [10] deals with T-24. Kind of experiment: Induction of apoptosis in human T24 cells assessed as viable cells at 20 uM incubated for 24 hrs by Annexin-V/PI staining based flow cytometry analysis (reference value: 94.3 %). In kind it is functional. Particulars: read-out: Activity.
Experiment [11] deals with T-24. Briefly: Induction of apoptosis in human T24 cells assessed as condensed chromatin at 10 uM by Hoechst33258 staining based fluorescence microscopy. In kind it is functional, cell-based.
In experiment [12] the test system is T-24. Kind of experiment: Induction of mitochondrial membrane potential dysfunction in human T24 cells assessed as increase in fragmentation at 10 uM incubated for 24 hrs by TEM analysis. In kind it is functional, cell-based.
Experiment [13] has as its system T-24. Kind of experiment: Induction of DNA damage in human T24 cells assessed as increase in gamma H2AX phosphorylation at 2 uM incubated for 24 hrs by Hoechst33258 staining based immunofluorescence assay. The class given is functional, cell-based.
The test system of experiment [14] is T-24. Kind of experiment: Induction of cell cycle arrest in human T24 cells assessed as upregulation of CDK2 expression at 2 to 4 uM incubated for 24 hrs by chemiluminescence based Western blotting analysis. To be noted: dose 2-4 µM. The class given is functional.
The test system of experiment [15] is T-24. Kind of experiment: Induction of cell cycle arrest in human T24 cells assessed as accumulation of cells at G1 phase at 2 uM incubated for 24 hrs by propidium iodide/RNase A staining based flow cytometry analysis (reference value: 51.71 %). In kind it is functional.
For experiment [16], the system named is T-24. Briefly: Induction of cell cycle arrest in human T24 cells assessed as accumulation of cells at G1 phase at 4 uM incubated for 24 hrs by propidium iodide/RNase A staining based flow cytometry analysis (reference value: 51.71 %). In kind it is functional.
The subject of experiment [17] is T-24. Briefly: Induction of apoptosis in human T24 cells assessed as late apoptotic cells at 4 uM incubated for 24 hrs by Annexin-V/PI staining based flow cytometry analysis (reference value: 0.543 %). The class given is functional.
Experiment [18] has as its system T-24. Kind of experiment: Induction of apoptosis in human T24 cells assessed as early apoptotic cells at 4 uM incubated for 24 hrs by Annexin-V/PI staining based flow cytometry analysis (reference value: 3.27 %). The class given is functional.
The test system of experiment [19] is T-24. Kind of experiment: Induction of apoptosis in human T24 cells assessed as late apoptotic cells at 6 uM incubated for 24 hrs by Annexin-V/PI staining based flow cytometry analysis (reference value: 0.543 %). In kind it is functional.
The test system of experiment [20] is T-24. Kind of experiment: Induction of apoptosis in human T24 cells assessed as early apoptotic cells at 6 uM incubated for 24 hrs by Annexin-V/PI staining based flow cytometry analysis (reference value: 3.27 %). The class given is functional.
In experiment [21] the test system is T-24. Kind of experiment: Induction of apoptosis in human T24 cells assessed as viable cells at 6 uM incubated for 24 hrs by Annexin-V/PI staining based flow cytometry analysis (reference value: 94.3 %). In kind it is functional. Particulars: read-out: Activity.
Experiment [22] relates to T-24. Briefly: Induction of mitochondrial membrane potential dysfunction in human T24 cells assessed as disappearance of cristae at 2 uM incubated for 24 hrs by TEM analysis. The class given is functional, cell-based.
The test system of experiment [23] is T-24. Briefly: Induction of DNA damage in human T24 cells assessed as DNA strand breakage by measuring comet formation at 0.5 uM incubated for 24 hrs by comet assay. In kind it is functional, cell-based.
For experiment [24], the system named is T-24. Kind of experiment: Induction of cell cycle arrest in human T24 cells assessed as increase in Cyclin B expression at 0.5 to 1 uM incubated for 24 hrs by chemiluminescence based Western blotting analysis. In kind it is functional. To be noted: dose 0.5-1 µM, DDE = dose-dependent effect.
Experiment [25] relates to T-24. Kind of experiment: Induction of cell cycle arrest in human T24 cells assessed as increase in CDK1 expression at 0.5 to 1 uM incubated for 24 hrs by chemiluminescence based Western blotting analysis. In kind it is functional. Particulars: dose 0.5-1 µM, DDE = dose-dependent effect.
Experiment [26] deals with T-24. Briefly: Induction of mitochondrial membrane potential dysfunction in human T24 cells assessed as shrinking mitochondria at 0.5 uM incubated for 24 hrs by TEM analysis. In kind it is functional, cell-based.
In experiment [27] the test system is T-24. Kind of experiment: Induction of Ca2+ production in human T24 cells assessed as increase in intracellular Ca2+ concentration at 0.5 uM by Fluo3-AM staining based fluorescence microscopic method. In kind it is functional, cell-based.
The test system of experiment [28] is T-24. Briefly: Induction of mitochondrial Ca2+ production in human T24 cells assessed as increase in intracellular Ca2+ concentration at 0.5 uM by Rhod2-AM staining based fluorescence microscopic method. In kind it is functional, cell-based.
The subject of experiment [29] is T-24. Briefly: Induction of apoptosis in human T24 cells assessed as increase in caspase 3 activity at 1 uM (Rvb= 3.1%). In kind it is functional.
Experiment [30] relates to T-24. Kind of experiment: Induction of cell cycle arrest in human T24 cells assessed as accumulation of cells at S phase at 0.5 uM incubated for 24 hrs by propidium iodide/RNase A staining based flow cytometry analysis (reference value: 42.47 %). In kind it is functional.
Experiment [31] has as its system T-24. Kind of experiment: Induction of cell cycle arrest in human T24 cells assessed as accumulation of cells at G1 phase at 1 uM incubated for 24 hrs by propidium iodide/RNase A staining based flow cytometry analysis (reference value: 51.71 %). The class given is functional.
The subject of experiment [32] is T-24. Briefly: Induction of cell cycle arrest in human T24 cells assessed as accumulation of cells at G2/M phase at 1 uM incubated for 24 hrs by propidium iodide/RNase A staining based flow cytometry analysis (reference value: 5.82 %). The class given is functional.
The subject of experiment [33] is T-24. Kind of experiment: Induction of apoptosis in human T24 cells assessed as necrotic cells at 1 uM incubated for 24 hrs by Annexin-V/PI staining based flow cytometry analysis (reference value: 1.92 %). In kind it is functional.
Experiment [34] has as its system T-24. Briefly: Induction of apoptosis in human T24 cells assessed as contracted small fragmented nuclei at 0.5 uM by Hoechst33258 staining based fluorescence microscopy. In kind it is functional, cell-based.
Experiment [35] has as its system T-24. Briefly: Induction of apoptosis in human T24 cells assessed as condensed chromatin at 0.5 uM by Hoechst33258 staining based fluorescence microscopy. The class given is functional, cell-based.
Experiment [36] relates to T-24. Briefly: Potency index, ratio of oxoaporphine IC50 to test compound IC50 for anticancer activity against human T24 cells. The class given is functional.

Calls of active or inactive are those of the source. The rule behind the calls is not given here.

On to `O=C1c2ccccc2-c2cccc3ccnc1c23`, for which the outcome in [1], in experiment [3], in [4], in [5], in [11] and in [12] was Active. Further, the Activity is given as 21.7% in experiment [2]; 25.5% in experiment [6]; 24.8% in experiment [7]; 31.45% in [8]; 46.29% in [9]. The viability at 20 µM in [10] was 56.2%.

With `O=C1c2cc([N+](=O)[O-])ccc2-c2ccc([N+](=O)[O-])c3ccnc1c23`, the result in experiment [13], in [14] and in [22] was Active. Further, the Activity in experiment [15] is on record as 0.27%; in experiment [16], 15.29%; in [17] it was 5.49%; in experiment [18], 32.3%; in [19], 6.56%; in experiment [20], 36.2%. In addition, the viability at 6 µM in experiment [21] was 54.1%.

In the case of `O=C1c2ccccc2-c2ccc([N+](=O)[O-])c3ccnc1c23`, the result in experiment [23], in experiment [26], in [27], in experiment [28], in [34] and in [35] was Active. The Activity result in experiment [24] is “Dde”; in experiment [25], “Dde”; in [29], 38.8%; in [30], 47.37%; in experiment [31], 3.53%; in experiment [32], 61.26%. Further, the Activity in [33] is listed as 1.57%. In addition, the “Ratio IC50” value in experiment [36] is 19.
